# Test system: 454973-116-R2-J3-PDC spheroids, viability, % test/control
# Assay: Anticancer human tumor 454973-116-R2-J3-PDC patient-derived pancreatic carcinoma cell line growth inhibition [GQUAD]
# Conditions: second compound 1 µM; first compound 0.1 µM; hits give low values; spheroids with HUVEC and MSC
# Summary of the method: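 Viability of tumor cells grown as complex spheroids with endothelial and stromal cells, exposed to drug combinations. Top concentration at or near clinical Cmax (else 10 microM), diluted in half-log increments.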
# 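Also: spheroids exposed to compounds for seven days; 100% = DMSO vehicle control viability.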
row,Structure (SMILES),"viability, T/C [%]"
1,CC1COCCN1c1cc(-c2ccnn2C)c2ccnc(-c3ccn[nH]3)c2n1 (stereo unspecified) + Cc1cnc(CNC(=O)c2c(=O)c3ccc(N4CCCN(C)CC4)nc3n3c2sc2ccccc23)cn1,27.9
2,CC1COCCN1c1cc(C2(S(C)(=N)=O)CC2)nc(-c2ccnc3[nH]ccc23)n1 (stereo unspecified) + Cc1cnc(CNC(=O)c2c(=O)c3ccc(N4CCCN(C)CC4)nc3n3c2sc2ccccc23)cn1,67.2

# Same assay, conditions: second compound 1 µM; first compound 0.316 µM; hits give low values; spheroids with HUVEC and MSC
row,Structure (SMILES),"viability, T/C [%]"
1,COc1ncnc(C2CC2)c1-c1ncc2cnn(Cc3ccc(-c4nc(C(F)(F)F)cn4C(C)C)cc3)c2n1 + Cc1[nH]c2ccc(F)cc2c1-c1nc2c3cccnc3c3ncccc3c2[nH]1,105
2,CC(C)n1c(=O)n(C)c2cnc3cc(F)c(-c4ccc(OCCCN5CCCCC5)nc4)cc3c21 + Cc1cnc(CNC(=O)c2c(=O)c3ccc(N4CCCN(C)CC4)nc3n3c2sc2ccccc23)cn1,46.9
3,CC1COCCN1c1cc(-c2ccnn2C)c2ccnc(-c3ccn[nH]3)c2n1 (stereo unspecified) + Cc1cnc(CNC(=O)c2c(=O)c3ccc(N4CCCN(C)CC4)nc3n3c2sc2ccccc23)cn1,27
4,CC1COCCN1c1cc(C2(S(C)(=N)=O)CC2)nc(-c2ccnc3[nH]ccc23)n1 (stereo unspecified) + Cc1cnc(CNC(=O)c2c(=O)c3ccc(N4CCCN(C)CC4)nc3n3c2sc2ccccc23)cn1,70
5,Cn1ncnc1[C@H]1c2n[nH]c(=O)c3cc(F)cc(c23)N[C@@H]1c1ccc(F)cc1 + Cc1cnc(CNC(=O)c2c(=O)c3ccc(N4CCCN(C)CC4)nc3n3c2sc2ccccc23)cn1,48.6

# Same assay, conditions: second compound 1 µM; first compound 1 µM; hits give low values; spheroids with HUVEC and MSC
row,Structure (SMILES),"viability, T/C [%]"
1,COc1ncnc(C2CC2)c1-c1ncc2cnn(Cc3ccc(-c4nc(C(F)(F)F)cn4C(C)C)cc3)c2n1 + Cc1[nH]c2ccc(F)cc2c1-c1nc2c3cccnc3c3ncccc3c2[nH]1,106
2,CC(C)n1c(=O)n(C)c2cnc3cc(F)c(-c4ccc(OCCCN5CCCCC5)nc4)cc3c21 + Cc1cnc(CNC(=O)c2c(=O)c3ccc(N4CCCN(C)CC4)nc3n3c2sc2ccccc23)cn1,48.7
3,CC1COCCN1c1cc(-c2ccnn2C)c2ccnc(-c3ccn[nH]3)c2n1 (stereo unspecified) + Cc1cnc(CNC(=O)c2c(=O)c3ccc(N4CCCN(C)CC4)nc3n3c2sc2ccccc23)cn1,24.2
4,CC1COCCN1c1cc(C2(S(C)(=N)=O)CC2)nc(-c2ccnc3[nH]ccc23)n1 (stereo unspecified) + Cc1cnc(CNC(=O)c2c(=O)c3ccc(N4CCCN(C)CC4)nc3n3c2sc2ccccc23)cn1,56.6

# Same assay, conditions: second compound 1 µM; first compound 3.16 µM; hits give low values; spheroids with HUVEC and MSC
row,Structure (SMILES),"viability, T/C [%]"
1,COc1ncnc(C2CC2)c1-c1ncc2cnn(Cc3ccc(-c4nc(C(F)(F)F)cn4C(C)C)cc3)c2n1 + Cc1[nH]c2ccc(F)cc2c1-c1nc2c3cccnc3c3ncccc3c2[nH]1,92.3
2,CC(C)n1c(=O)n(C)c2cnc3cc(F)c(-c4ccc(OCCCN5CCCCC5)nc4)cc3c21 + Cc1cnc(CNC(=O)c2c(=O)c3ccc(N4CCCN(C)CC4)nc3n3c2sc2ccccc23)cn1,51.8
3,CC1COCCN1c1cc(-c2ccnn2C)c2ccnc(-c3ccn[nH]3)c2n1 (stereo unspecified) + Cc1cnc(CNC(=O)c2c(=O)c3ccc(N4CCCN(C)CC4)nc3n3c2sc2ccccc23)cn1,22.6
4,CC1COCCN1c1cc(C2(S(C)(=N)=O)CC2)nc(-c2ccnc3[nH]ccc23)n1 (stereo unspecified) + Cc1cnc(CNC(=O)c2c(=O)c3ccc(N4CCCN(C)CC4)nc3n3c2sc2ccccc23)cn1,36.1

# Same assay, conditions: second compound 1 µM; first compound 10 µM; hits give low values; spheroids with HUVEC and MSC
row,Structure (SMILES),"viability, T/C [%]"
1,COc1ncnc(C2CC2)c1-c1ncc2cnn(Cc3ccc(-c4nc(C(F)(F)F)cn4C(C)C)cc3)c2n1 + Cc1[nH]c2ccc(F)cc2c1-c1nc2c3cccnc3c3ncccc3c2[nH]1,98.9
2,CC(C)n1c(=O)n(C)c2cnc3cc(F)c(-c4ccc(OCCCN5CCCCC5)nc4)cc3c21 + Cc1cnc(CNC(=O)c2c(=O)c3ccc(N4CCCN(C)CC4)nc3n3c2sc2ccccc23)cn1,48.2
3,CC1COCCN1c1cc(-c2ccnn2C)c2ccnc(-c3ccn[nH]3)c2n1 (stereo unspecified) + Cc1cnc(CNC(=O)c2c(=O)c3ccc(N4CCCN(C)CC4)nc3n3c2sc2ccccc23)cn1,19.5
4,CC1COCCN1c1cc(C2(S(C)(=N)=O)CC2)nc(-c2ccnc3[nH]ccc23)n1 (stereo unspecified) + Cc1cnc(CNC(=O)c2c(=O)c3ccc(N4CCCN(C)CC4)nc3n3c2sc2ccccc23)cn1,38

# Same assay, conditions: second compound 3.16 µM; first compound 0.000999 µM; hits give low values; spheroids with HUVEC and MSC
row,Structure (SMILES),"viability, T/C [%]"
1,Cn1ncnc1[C@H]1c2n[nH]c(=O)c3cc(F)cc(c23)N[C@@H]1c1ccc(F)cc1 + Cc1cnc(CNC(=O)c2c(=O)c3ccc(N4CCCN(C)CC4)nc3n3c2sc2ccccc23)cn1,62.1

# Same assay, conditions: second compound 3.16 µM; first compound 0.00316 µM; hits give low values; spheroids with HUVEC and MSC
row,Structure (SMILES),"viability, T/C [%]"
1,Cn1ncnc1[C@H]1c2n[nH]c(=O)c3cc(F)cc(c23)N[C@@H]1c1ccc(F)cc1 + Cc1cnc(CNC(=O)c2c(=O)c3ccc(N4CCCN(C)CC4)nc3n3c2sc2ccccc23)cn1,53.4

# Same assay, conditions: second compound 3.16 µM; first compound 0.00999 µM; hits give low values; spheroids with HUVEC and MSC
row,Structure (SMILES),"viability, T/C [%]"
1,Cn1ncnc1[C@H]1c2n[nH]c(=O)c3cc(F)cc(c23)N[C@@H]1c1ccc(F)cc1 + Cc1cnc(CNC(=O)c2c(=O)c3ccc(N4CCCN(C)CC4)nc3n3c2sc2ccccc23)cn1,60.2

# Same assay, conditions: second compound 3.16 µM; first compound 0.0316 µM; hits give low values; spheroids with HUVEC and MSC
row,Structure (SMILES),"viability, T/C [%]"
1,COc1ncnc(C2CC2)c1-c1ncc2cnn(Cc3ccc(-c4nc(C(F)(F)F)cn4C(C)C)cc3)c2n1 + Cc1[nH]c2ccc(F)cc2c1-c1nc2c3cccnc3c3ncccc3c2[nH]1,99.2
2,CC(C)n1c(=O)n(C)c2cnc3cc(F)c(-c4ccc(OCCCN5CCCCC5)nc4)cc3c21 + Cc1cnc(CNC(=O)c2c(=O)c3ccc(N4CCCN(C)CC4)nc3n3c2sc2ccccc23)cn1,53.7
3,CC1COCCN1c1cc(-c2ccnn2C)c2ccnc(-c3ccn[nH]3)c2n1 (stereo unspecified) + Cc1cnc(CNC(=O)c2c(=O)c3ccc(N4CCCN(C)CC4)nc3n3c2sc2ccccc23)cn1,40.3
4,CC1COCCN1c1cc(C2(S(C)(=N)=O)CC2)nc(-c2ccnc3[nH]ccc23)n1 (stereo unspecified) + Cc1cnc(CNC(=O)c2c(=O)c3ccc(N4CCCN(C)CC4)nc3n3c2sc2ccccc23)cn1,65.9
